Data: patent publication US20260240878A1, “PTP1B/TC-PTP DUAL INHIBITORS AND PROTEIN DEGRADERS” (Purdue Research Foundation, priority 2023, published 2026)
*1 amine or outer side, *2 acyl side, *3 side chain or, on linkers, in order; H or OH if unused. Where a SMILES comes first, the peptide text is derived from it. [ ]: non-standard residue; d: D form. The star is where a group is joined. NHCH2(1,3-C6H4)CH2CO = O=C(Cc1cccc(CN[*:1])c1)[*:2]; F2Pmp = N[C@@H](Cc1ccc(C(F)(F)P(=O)(O)O)cc1)C(=O)O; Phenylacetyl(4-OH,3-OMe) = COc1cc(CC(=O)*)ccc1O; Benzoyl(3-Br,4-Me) = Cc1ccc(C(=O)*)cc1Br; X1 = Cc1ncsc1-c1ccc([C@H](C)N*)cc1; Hyp = O=C(O)[C@@H]1C[C@@H](O)CN1; Tle = CC(C)(C)[C@H](N)C(=O)O

Columns and labels:
pSTAT1 = assay: STAT1 phosphorylation in IFN-γ stimulated HEK293 cells (western blot); assay type: cell-based; details: Homo sapiens, HEK293, 16 h, read-out: EC50 of pSTAT1 activation
Procedure: Wild-type HEK293 cells were treated with compound 47 or ABBV-CLS-484 for 16 hours, and stimulated with 20 ng/ml IFN-γ to induce JAK-STAT signaling pathway activation.
Abbvie and Calico developed a potent PTP1B/TC-PTP inhibitor ABBV-CLS-484 (disclosed in International PCT application WO2019246513), and it is currently being evaluated as a treatment for locally advanced or metastatic tumors (NCT04777994).

TC-PTP = target: T1, TC-PTP (Homo sapiens, UniProt P17706); assay: Degradation assay in HEK293 cells (immunoblotting); assay type: cell-based; design: Degradation assay was conducted in HEK293 cells with 1 μM degrader and 24 hours incubation; endogenous in cells; host or cells: HEK293; details: 16 hours, dose response
T1 sequence (P17706 1-415): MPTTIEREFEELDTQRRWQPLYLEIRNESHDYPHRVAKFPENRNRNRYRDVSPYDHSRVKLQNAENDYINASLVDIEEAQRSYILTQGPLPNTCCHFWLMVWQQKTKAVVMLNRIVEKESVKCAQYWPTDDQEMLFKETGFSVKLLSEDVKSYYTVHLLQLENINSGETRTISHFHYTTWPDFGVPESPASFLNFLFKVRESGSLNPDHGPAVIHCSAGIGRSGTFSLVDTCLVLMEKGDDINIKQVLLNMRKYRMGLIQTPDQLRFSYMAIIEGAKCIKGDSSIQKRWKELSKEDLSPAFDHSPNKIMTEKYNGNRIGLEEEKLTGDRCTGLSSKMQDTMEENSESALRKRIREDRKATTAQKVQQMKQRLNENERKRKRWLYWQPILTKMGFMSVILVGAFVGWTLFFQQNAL

MC38 syngeneic tumor = MC38 syngeneic tumor study; assay type: in vivo, mouse
Procedure: Quantification was performed based on six representative images from six sections.
For MC38 syngeneic tumor study, 12 weeks C57BL6 female mice were injected subcutaneously with 10^6 MC38 cells for tumor growth. When tumors reached an average volume of 200 mm^3, mice were tumor size-matched and randomly assigned to different experimental groups for experiments. Mice were injected intraperitoneally with saline or 25 or 50 mg/kg compound 47 daily. Tumor sizes and animal weights were measured twice per week (FIGS. 5B-5C). Tumor volume (mm^3)=(length×width^2)/2. At the end of the experiments, mice were euthanized, and tumors were collected for analysis.

MC38 cells = assay: MHC-I expression in MC38 cells by flow cytometry; assay type: cell-based; details: 500 nM 16 hours, then mouse IFN-γ 48 hours
Procedure: Mouse MHC-I complex was stained with mouse H2K(b)/H2D(b) antibody and measured by flow cytometry.
After incubation, MC38 cells were trypsinized and washed in PBS+2% FBS, stained with Alexa Fluor® 647 anti-mouse H-2Kb/H-2Db Antibody against mouse MHC-I complex and then analyzed on a BD Fortessa LSR flow cytometry cell analyzer.

[1] = Pharmacokinetic study in mice (i.p., different formulas); assay type: in vivo, mouse; details: PBS buffer compared to saline
Procedure: Plasma concentrations of compound 47 were measured by LCMS after i.p. injection with different formulas at the indicated time.
For the PK study, C57BL6 female mice (25-30 g body weight) were injected intraperitoneally with 25 or 50 mg/kg compound 47 dissolved in 0.4 ml saline. Blood samples were collected through the tail vein at indicated time points after injection. Isoflurane was used as an anesthetic. All blood samples were centrifuged at 1,500 g for 5 minutes, and plasma was separated and stored at −80° C. until analysis by a validated method based on reversed-phase liquid chromatography coupled to mass-spectrometric detection (LC/MS) using a reported procedure (Journal of Clinical Investigation, 2018, 128, 816-825), which is hereby specifically incorporated by reference for its teachings regarding same (FIG. 5A).
Saline was replaced by PBS buffer in the treatment of compound 47 in mice to improve PK properties (FIG. 10). Both Cmax and area under the curve (AUC) were increased compared to the above method with saline.

PTP1B and TC-PTP [2] = assay: Western blot quantification of PTP1B/TC-PTP and pSTAT1 in multiple cell lines; assay type: cell-based
Procedure: The GAPDH protein was used as the loading control. Compound 47 induces PTP1B and TC-PTP degradation in all tested cell lines with low nanomolar DC50s.
The GAPDH protein was used as the loading control. […] The changes in pSTAT1 level were positively correlated with TC-PTP/PTP1B degradation among all cell lines.
Tissues or cultured cells were lysed with ice-cold lysis buffer (50 mM Tris (pH 8.0, 150 mM NaCl, 10% Glycerol, 1% Triton-X-100) supplied with phosphatase inhibitor (Bimake) and protease inhibitor mixture (Roche Applied Science). Equal amounts of protein were resolved by SDS-PAGE, transferred to nitrocellulose membrane, and subjected to immunoblotting. Antibodies used in this study include anti-following proteins: pSTAT1^Tyr701 (Cell Signaling Technology #9167, 1:3000), GAPDH (Cell Signaling Technology #97166, 1:5000), pJAK1^Tyr1034/1035 (Cell Signaling Technology #74129, 1:1000), pJAK2^Tyr1007/1008 (Cell Signaling Technology #3776, 1:1000), TC-PTP (Abcam #ab180764, 1:3000). PTP1B (Abcam #ab244207, 1:1500).

PTP1B and TC-PTP [3] = assay: PTP1B/TC-PTP degradation and pJAK1/2 elevation in MEF cells; assay type: cell-based, mouse; details: 500 nM, 16 hours
Procedure: Deletion of TC-PTP or PTP1B abolished the compound 47-induced phosphorylation of the TC-PTP substrate JAK1 or the PTP1B substrate JAK2. Thus, compound 47 efficiently amplifies cellular […] signaling by degrading PTP1B and TC-PTP. U2OS cells were treated with DMSO or 0.2 μM compound 47 for 16 hours and stimulated with 20 ng/ml IFN-γ for 30 minutes. […] DAPI was used to stain the cell nucleus.
The target engagement by compound 47 inside the cell was ascertained. As negative regulators of IFN-γ signaling, PTP1B and TC-PTP dephosphorylate JAK2 at Y1007/Y1008 and JAK1 at Y1034/Y1035, respectively. In addition, TC-PTP can also directly dephosphorylate STAT family members, including STAT1 and STAT3, in the nucleus to comprehensively attenuate IFN signaling. […] In contrast, the addition of compound 47 to PTP1B^−/− MEF cells further increased the IFN-γ mediated TC-PTP substrate pJAK1/Y1034/Y1035 level with no alteration of PTP1B substrate JAK2/Y1007/Y1008 phosphorylation.

COc1cc(CC(=O)N[C@@H](Cc2ccccc2)C(=O)N[C@@H](Cc2ccc(C(F)(F)P(=O)(O)O)cc2)C(=O)N[C@@H](CCCCNC(=O)c2ccc(C)c(Br)c2)C(=O)NCc2cccc(CC(=O)N[C@H](C(=O)N3C[C@H](O)C[C@H]3C(=O)N[C@@H](C)c3ccc(-c4scnc4C)cc3)C(C)(C)C)c2)ccc1O [Compound 47, ((4-((S)-3-(((S)-6-(3-bromo-4-methylbenzamido)-1-((3-(2-(((S)-1-((2S,4R)-4-hydroxy-2-(((S)-1-(4-(4-methylthiazol-5-yl)phenyl)ethyl)carbamoyl)pyrrolidin-1-yl)-3,3-dimethyl-1-oxobutan-2-yl)amino)-2-oxoethyl)benzyl)amino)-1-oxohexan-2-yl)amino)-2-((S)-2-(2-(4-hydroxy-3-methoxyphenyl)acetamido)-3-phenylpropanamido)-3-oxopropyl)phenyl)difluoromethyl)phosphonic Acid] ({Phenylacetyl(4-OH,3-OMe)}-F[F2Pmp]K(Benzoyl(3-Br,4-Me))[NHCH2(1,3-C6H4)CH2CO][Tle][Hyp]-X1)
EC50 (pSTAT1): 9.1 nM
TC-PTP degradation (TC-PTP): dose-dependently induced degradation of TC-PTP
CD8 T cell infiltration of tumor (CD8α IHC) (MC38 syngeneic tumor; 25 mg/kg): high level of CD8-T cell infiltration
MC38 tumor growth (MC38 syngeneic tumor; 25 and 50 mg/kg i.p. daily, ten days): significantly inhibits MC38 tumor growth
PTP1B and TC-PTP degradation in vivo (MC38 tumor) (MC38 syngeneic tumor; 25 or 50 mg/kg): induces PTP1B and TC-PTP degradation in vivo
MHC-I expression (MC38 cells): elevated expression of MHC-I
Cmax [1]: increased
area under the curve (AUC) [1]: increased
DC50 of PTP1B and TC-PTP degradation (PTP1B and TC-PTP [2]; all tested cell lines, 16 hours): low nanomolar
pSTAT1 level (PTP1B and TC-PTP [2]; multiple cell lines, 10 ng/ml IFN-γ 15 mins): enhances pSTAT1 level in all cell lines
IFN-γ stimulated JAK2 and JAK1 phosphorylation (PTP1B and TC-PTP [3]): augmented
PTP1B and TC-PTP removal (PTP1B and TC-PTP [3]): complete removal
